Measured values published in US20100009970A1, “COMPOSITIONS AND METHODS FOR TREATMENT OF VIRAL DISEASES” (Combinatorx (Singapore) Pte. Ltd., priority 2008, published 2010).
Read-outs that look alike come from different tables or passages of the source.

Experiments:
[1] = test system: Huh7 cells expressing a subgenomic RNA replicon of Con1 (genotype 1b) sequence origin; assay: microbe, parasite or virus in culture; settings: Hepatitis C virus
in vitro = settings: human
[2] = Huh-7, read-out: IC50 (uM) [SG]
[3] = Huh-7, read-out: Max Effect@CC30 (inhibition)
[4] = GETYPE1B, Huh-7, 72 h, read-out: Max Effect @CC30 (inhibition)

Row | Structure (SMILES) | IC50 [1, 2] | CC50 (in vitro; CC50 (uM) [SG]) | IC90 ([1]; Huh-7) | Emax [1, 3] | Emax [1, 4] | IC50 ([1]; Huh-7, 72 h) | CC50 (in vitro; CC50 (uM)) | IC50 ([1]; Huh-7)
1 | CSc1ccc(Oc2ccc(S(N)(=O)=O)cc2CN2CCN(c3ccccc3)CC2)cc1C [Compound 93, 4-(3-methyl-4-(methylthio)phenoxy)-3-((4-phenylpiperazin-1-yl)methyl)benzenesulfonamide] | 20.2 µM | 43.1 µM | – | – | – | – | – | –
2 | CSc1ccc(Oc2ccc(N)cc2CN(C)C)cc1C [Compound 53, 3-((dimethylamino)methyl)-4-(3-methyl-4-(methylthio)phenoxy)aniline] | 22.6 µM | > 50 µM | 45.7 µM | 91.5% | – | – | – | –
3 | CC(=O)Nc1ccc2c(c1)C(C(C)C)CCC2c1ccc(Cl)c(Cl)c1 (centres unmarked) [N-(5-(3,4-dichlorophenyl)-8-isopropyl-5,6,7,8-tetrahydronaphthalen-2-yl)acetamide] | 15.8 µM | > 50 µM | 37.7 µM | – | – | – | – | –
4 | N[C@H]1CC[C@@H](c2ccc(Cl)c(Cl)c2)c2ccccc21 [(1S,4S)-Desmethyl Sertraline, (1S,4S)-4-(3,4-dichlorophenyl)-1,2,3,4-tetrahydronaphthalen-1-amine] | 7.5 µM | 8.98 ± 0.1 µM | – | 0% | 0% | 7.5 ± 0.4 µM | 8.98 ± 0.1 µM | –
5 | CCCCNS(=O)(=O)c1ccc(Oc2ccc(SC)c(C)c2)c(CN(C)C)c1 [Compound 12, N-butyl-3-((dimethylamino)methyl)-4-(3-methyl-4-(methylthio)phenoxy)benzenesulfonamide] | 13.4 µM | 18.4 µM | – | – | – | – | – | –
6 | CNS(=O)(=O)c1ccc(Oc2ccc(SC)c(C)c2)c(CN(C)C)c1 [Compound 6, 3-((dimethylamino)methyl)-N-methyl-4-(3-methyl-4-(methylthio)phenoxy)benzenesulfonamide] | 5.8 µM | 45.3 µM | 14.8 µM | 93.2% | – | – | – | –
7 | CSc1ccc(Oc2ccc(S(=O)(=O)NC3CC3)cc2CN(C)C)cc1C [Compound 13, N-cyclopropyl-3-((dimethylamino)methyl)-4-(3-methyl-4-(methylthio)phenoxy)benzenesulfonamide] | 25.5 µM | 41.8 µM | – | – | – | – | – | –
8 | CN(C)Cc1ccccc1Oc1ccc(Br)cc1 [Compound 55, (2-(4-bromophenoxy)phenyl)-N,N-dimethylmethanamine] | 29.9 µM | > 50 µM | – | 77.2% | – | – | – | –
9 | CC(=O)NCc1ccc2c(c1)[C@@H](N(C)C)CC[C@H]2c1ccc(Cl)c(Cl)c1 [N-(((5S,8S)-5-(3,4-dichlorophenyl)-8-(dimethylamino)-5,6,7,8-tetrahydronaphthalen-2-yl)methyl)acetamide] | 4.45 µM | 19.1 µM | 9.72 µM | 92% | – | – | – | –
10 | CN[C@H]1CC[C@@H](c2ccc(Cl)c(Cl)c2)c2ccc(C(=O)NCC(=O)OC)cc21 [methyl 2-((1S,4S)-1-(3,4-dichlorophenyl)-4-(methylamino)-1,2,3,4-tetrahydronaphthalene-6-carboxamido)acetate] | 6.69 µM | 22.9 µM | – | – | – | – | – | –
11 | CNCc1cc(S(N)(=O)=O)ccc1Oc1ccc(SC)c(OC)c1 [Compound 75, 4-(3-methoxy-4-(methylthio)phenoxy)-3-((methylamino)methyl)benzenesulfonamide] | 11.9 µM | > 50 µM | – | – | – | – | – | –
12 | CN[C@H]1CC[C@@H](c2ccc(Cl)c(Cl)c2)c2ccc(N)cc21 [Sertraline Aniline, (1S,4S)-4-(3,4-dichlorophenyl)-N1-methyl-1,2,3,4-tetrahydronaphthalene-1,7-diamine] | 6 µM | 8.72 µM | – | 50% | 50% | 6 µM | 8.72 µM | –
13 | COC[C@@H]1CCCN1Cc1cc(S(N)(=O)=O)ccc1Oc1ccc(SC)c(C)c1 [Compound 104, (S)-3-((2-(methoxymethyl)pyrrolidin-1-yl)methyl)-4-(3-methyl-4-(methylthio)phenoxy)benzenesulfonamide] | 27.8 µM | > 50 µM | – | – | – | – | – | –
14 | CNCc1ccccc1Oc1ccc(SC)c(C)c1 [Compound 30, N-methyl-1-(2-(3-methyl-4-(methylthio)phenoxy)phenyl)methanamine] | 13.2 µM | 26.4 µM | – | 26% | – | – | – | –
15 | CNCc1ccccc1Oc1ccc(C(F)(F)F)cc1 [Compound 39, N-methyl-1-(2-(4-(trifluoromethyl)phenoxy)phenyl)methanamine] | 37.5 µM | > 50 µM | 50 µM | 91.7% | – | – | – | –
16 | CSc1ccc(Oc2ccc(S(N)(=O)=O)cc2CN(C)CCO)cc1C [Compound 2, 3-(((2-hydroxyethyl)(methyl)amino)methyl)-4-(3-methyl-4-(methylthio)phenoxy)benzenesulfonamide] | 5.58 µM | > 50 µM | 20.1 µM | – | – | – | – | –
17 | CSc1ccc(Oc2ccc(S(=O)(=O)Nc3ccccc3)cc2CN(C)C)cc1C [Compound 49, 3-((dimethylamino)methyl)-4-(3-methyl-4-(methylthio)phenoxy)-N-phenylbenzenesulfonamide] | 6.53 µM | 10.8 µM | – | 15.3% | – | – | – | –

Row | Structure (SMILES) | IC50 [1, 2] | CC50 (in vitro; CC50 (uM) [SG]) | IC90 ([1]; Huh-7) | Emax [1, 3] | Emax [1, 4] | IC50 ([1]; Huh-7, 72 h) | CC50 (in vitro; CC50 (uM)) | IC50 ([1]; Huh-7)
18 | CSc1ccc(Oc2cc(C#N)ccc2CN(C)C)cc1C [Compound 64, 4-((dimethylamino)methyl)-3-(3-methyl-4-(methylthio)phenoxy)benzonitrile] | 22.5 µM | > 50 µM | – | – | – | – | – | –
19 | CSc1ccc(Oc2ccc(S(N)(=O)=O)cc2CN2CC[C@@H](N(C)C)C2)cc1C [Compound 100, (R)-3-((3-(dimethylamino)pyrrolidin-1-yl)methyl)-4-(3-methyl-4-(methylthio)phenoxy)benzenesulfonamide] | 5.03 µM | 35.6 µM | 10.6 µM | – | – | – | – | –
20 | CN(C)[C@H]1CC[C@@H](c2ccc(Cl)c(Cl)c2)c2ccc(C(=O)NC3CCC3)cc21 [(5S,8S)—N-cyclobutyl-5-(3,4-dichlorophenyl)-8-(dimethylamino)-5,6,7,8-tetrahydronaphthalene-2-carboxamide] | 5.78 µM | 13.4 µM | – | – | – | – | – | –
21 | CNCc1ccccc1Oc1ccc(Br)cc1 [Compound 32] | 31.2 µM | > 50 µM | – | 30% | – | – | – | –
22 | CN[C@H]1CC[C@@H](c2ccc(Cl)c(Cl)c2)c2ccc(NC(=O)c3ccccc3)cc21 [Sertraline A-Ring Reverse Benzamide, N-((5S,8S)-5-(3,4-dichlorophenyl)-8-(methylamino)-5,6,7,8-tetrahydronaphthalen-2-yl)benzamide] | 2.94 µM | 3.67 µM | 3.88 µM | 62.2% | – | – | 3.67 µM | 2.94 µM
23 | CN[C@H]1CC[C@@H](c2ccc(Cl)c(Cl)c2)c2ccc(NS(=O)(=O)c3cn(C)cn3)cc21 [N-((5S,8S)-5-(3,4-dichlorophenyl)-8-(methylamino)-5,6,7,8-tetrahydronaphthalen-2-yl)-1-methyl-1H-imidazole-4-sulfonamide] | 7.76 µM | 13.6 µM | – | 20.2% | – | – | – | –
24 | CNCc1ccccc1Oc1ccc(SC)cc1 [Compound 33, N-methyl(2-(4-(methylthio)phenoxy)phenyl)methanamine] | 30.2 µM | > 50 µM | – | 72.3% | – | – | – | –
25 | CSc1ccc(Oc2ccc(S(N)(=O)=O)cc2CN(C)C[C@@H](C)O)cc1C [Compound 70, (R)-3-(((2-hydroxypropyl)(methyl)amino)methyl)-4-(3-methyl-4-(methylthio)phenoxy)benzenesulfonamide] | 7.01 µM | > 50 µM | 23.9 µM | – | – | – | – | –
26 | CSc1ccc(Oc2ccc([N+](=O)[O-])cc2CN(C)C)cc1C [Compound 54, N,N-dimethyl-1-(2-(3-methyl-4-(methylthio)phenoxy)-5-nitrophenyl)methanamine] | 6.18 µM | > 50 µM | 7.07 µM | 97.9% | – | – | – | –
27 | CN[C@H]1CC[C@@H](c2ccc(Cl)c(Cl)c2)c2ccc(CSC)cc21 [Sertraline A-Ring Methylsulfide, (1S,4S)-4-(3,4-dichlorophenyl)-N-methyl-7-(methylthiomethyl)-1,2,3,4-tetrahydronaphthalen-1-amine] | 4.18 µM | 6.18 µM | – | 14.8% | – | – | – | –
28 | CSc1ccc(Oc2ccc(S(N)(=O)=O)cc2CN2CC[C@@H](O)C2)cc1C [Compound 67, (R)-3-((3-hydroxypyrrolidin-1-yl)methyl)-4-(3-methyl-4-(methylthio)phenoxy)benzenesulfonamide] | 2.26 µM | > 50 µM | 7.4 µM | – | – | – | – | –
29 | CN[C@H]1CC[C@@H](c2ccc(Cl)c(Cl)c2)c2ccc(C(=O)Nc3ccccc3)cc21 [Sertraline A-Ring Benzamide, (5S,8S)-5-(3,4-dichlorophenyl)-8-(methylamino)-N-phenyl-5,6,7,8-tetrahydronaphthalene-2-carboxamide] | 2.73 µM | 3.89 µM | – | 48.6% | – | – | – | –
30 | CSc1ccc(Oc2ccc(S(N)(=O)=O)cc2CN2CC[C@H](N(C)C)C2)cc1C [Compound 88, (S)-3-((3-(dimethylamino)pyrrolidin-1-yl)methyl)-4-(3-methyl-4-(methylthio)phenoxy)benzenesulfonamide] | 4.15 µM | 39.4 µM | 13.2 µM | – | – | – | – | –
31 | CSc1ccc(Oc2ccc(S(N)(=O)=O)cc2CN2CCC(N3CCOCC3)CC2)cc1C [Compound 89, 4-(3-methyl-4-(methylthio)phenoxy)-3-((4-morpholinopiperidin-1-yl)methyl)benzenesulfonamide] | 6.62 µM | > 50 µM | 21.3 µM | – | – | – | – | –
32 | CSc1ccc(Oc2ccc(S(N)(=O)=O)cc2CN2C[C@@H](O)C[C@@H]2CO)cc1C [Compound 110, 3-(((2S,4R)-4-hydroxy-2-(hydroxymethyl)pyrrolidin-1-yl)methyl)-4-((3-methyl-4-methylthio)phenoxy)benzenesulfonamide] | 13.1 µM | > 50 µM | – | – | – | – | – | –
33 | CSc1ccc(Oc2ccc(S(N)(=O)=O)cc2CNC[C@H](C)O)cc1C [Compound 69, (S)-3-((2-hydroxypropylamino)methyl)-4-(3-methyl-4-(methylthio)phenoxy)benzenesulfonamide] | 3.54 µM | > 50 µM | 10.4 µM | – | – | – | – | –
